Measurements: patent publication US20260072027A1, “Peptides And Method” (Queen Mary University of London, priority 2022, published 2026)
Where no end group is shown, it is not given here. [ ]: non-standard residue; d: D form. Dopa = N[C@@H](Cc1ccc(O)c(O)c1)C(=O)O; Cya = N[C@@H](CS(=O)(=O)O)C(=O)O

Key:
serum IgG autoantibodies = test: ELISA for autoantibody detection: serum antibody binding to native and oxPTM insulin peptides; design: species or system human; conditions: for % binders, Healthy controls / Mean ± SEM (absorbance, OD), Healthy controls / % binders, Type 1 diabetes: Study cohort 1; for % binders, Healthy controls / Mean ± SEM (absorbance, OD), Healthy controls / % binders, Type 1 diabetes / Mean ± SEM (absorbance, OD), Type 1 diabetes: in silico modifications; for % binders, Type 1 diabetes: cut-off = mean of healthy controls to Nt-INSP plus 3 SEM; for Mean ± SEM (absorbance, OD), Type 1 diabetes: Study cohort 1 sera
Procedure: ELISA for autoantibody detection. The ELISA analysis of Nt-INS and oxPTM-INS autoantibodies was performed as previously described [18](detailed in ESM methods, ELISA assay for antibody detection).
Statistical analyses. Statistical analyses were performed using Prism Software 9.0 (GraphPad, San Diego, CA, USA). Cut-off points of positivity (binders) in the antibody ELISA for each peptide were defined by the mean of optical absorbance (O.D) of healthy controls to the corresponding Nt-INSP plus three times the standard error of the mean (SEM). Specificity and sensitivity were evaluated by receiver operating characteristic (ROC) curve analysis. Area under the curve (AUC) is reported as absolute value and was tested for equality according to DeLong et al. Differences in antibody levels and T-cell stimulation indices (SI) between groups were tested by the One way ANOVA or Student's t-tests as appropriate. Correlation analyses were tested by Pearson or Spearman's test, as appropriate. Categorical analyses were performed by Chi-square or McNemar's tests, as appropriate. For each set of experiments, p values were adjusted for multiple comparison using the Holm-Sidak's test. Hierarchical cluster and Principal Component Analysis (PCA) was done using Clustvis software (https://biit.cs.ut.ee/clustvis/) and Prism Software 9.0, respectively.
Antibody reactivity of type 1 diabetes serum against the candidate oxPTM-INSP. Identified peptide candidates were synthesised and exposed to either HOCl or ^●OH to generate oxPTM-INSPs that were first assessed by TOF-MS/ES+TIC to confirm modification (FIG. 17). Antibody response against native INSPs (Nt-INSPs) and oxPTM-INSPs was evaluated by ELISA using sera from Study cohort 1.
ESM Methods ELISA assay for antibody detection. The ELISA analysis of native (Nt-INS) and modified insulin (oxPTM-INS) was performed as previously described. Briefly, the ELISA plate was coated overnight at 4° C. with 100 μl per well of modified or native insulin in 0.05 M carbonate/bicarbonate buffer pH 9.6 at 10 μg/ml. The next day, the plates were washed 3 times with 0.1% Tween PBS, followed by blocking for 2 hours at room temperature with 200 μl per well of 5% BSA in 0.1% Tween PBS. After washing, 100 μl of 1:200-diluted serum samples in 5% BSA-0.1% Tween PBS were added for additional 2 hours incubation. ELISA plates were then washed 3 times with 0.1% Tween PBS followed by probing with anti-human IgG horse radish peroxidase conjugated (HRP, Sigma) at 1:1,000 dilution in 5% BSA-0.1% Tween PBS for another 1.5 hours incubation. The ELISA plates were washed, and 100 μg/ml TMB substrate in 0.1M sodium acetate pH 6.0 plus 2 μl/10 ml of H2O2, were added. Subsequently, the reaction was stopped with 20% v/v sulphuric acid. The optical density (O.D.) was measured at 450 nm using a GENios plate reader and Magellan software (TECAN, Dorset, UK).

CD4+ T-cells (PBMCs) = test: In vitro peptide stimulation and T-cell proliferation assay, CD4+; format: cell-based, human
Description: (§1) In vitro peptide stimulation and T-cell proliferation assay. Peripheral blood mononuclear cells (PBMCs) were freshly isolated from type 1 diabetes and healthy individuals using Ficoll-Hypaque density gradient centrifugation. PBMCs were labelled with the fluorescent dye CellTrace Violet (Invitrogen, Thermo Fisher Scientific) and cultured (2×10^5 cells/well) in round-bottom 96-well plates (Falcon, Becton Dickinson) with RPMI-1640 medium (Gibco, Thermo Fisher Scientific) supplemented with 5% autologous plasma in the presence or not of insulin peptides (20 μg/ml); PPD (10 μg/ml) and anti-CD3 (0.1 μg/ml; clone OKT3) were used as positive control. Two scrambled peptides: […] (SEQ ID NO: 17), […] (SEQ ID NO: 18), and the Exendin 9-39 fragment were used as negative controls. After 7 days, PBMCs were stained with PE-Cy7 anti-CD8 (clone RPA-T8, BD Pharmingen) and FITC anti-CD3 (clone UCHT1, BD Pharmingen). Samples were analysed by using a FACSCanto II (BD Bioscience) to evaluate T-cell proliferation measured as CellTrace Violet dilution. Cytofluorimetric analyses were performed using FlowJo Software (FlowJo, LLC). The results were given as stimulation index (SI), calculated as percentage of stimulated T-cell subset proliferation/percentage of unstimulated T-cell subset proliferation. Assay for detection of peptide specific T cells subsets was done as previously described (detailed in ESM methods, Assay for detection of peptide specific T cells)
(§2) T-cell stimulation with oxPTM-INSPs. To evaluate the immune cell response against the oxPTM-INSPs, we performed CD4+ and CD8+ T cells proliferation experiments using freshly isolated PBMCs (Study cohort 2, Table 1). Response was calculated as stimulatory index (SI) over unstimulated T-cells.

CD8+ T-cells (PBMCs) = test: In vitro peptide stimulation and T-cell proliferation assay, CD8+; format: cell-based, human
Description: as §1, §2

Substance	% binders, Healthy controls (serum IgG autoantibodies) [%]	Mean ± SEM (absorbance, OD), Healthy controls (serum IgG autoantibodies)	% binders, Type 1 diabetes (serum IgG autoantibodies) [%]	Mean ± SEM (absorbance, OD), Type 1 diabetes (serum IgG autoantibodies)	CD4+ T-cell response, subjects with SI > 1 (%) (CD4+ T-cells (PBMCs); Controls (N = 11))	CD4+ T-cell response, subjects with SI > 3 (%) (CD4+ T-cells (PBMCs); Controls (N = 11))	CD4+ T-cell response, subjects with SI > 5 (%) (CD4+ T-cells (PBMCs); Controls (N = 11))	CD4+ T-cell response, subjects with SI > 10 (%) (CD4+ T-cells (PBMCs); Controls (N = 11))	CD4+ T-cell response, subjects with SI > 1 (%) (CD4+ T-cells (PBMCs); Type 1 diabetes (N = 18))	CD4+ T-cell response, subjects with SI > 3 (%) (CD4+ T-cells (PBMCs); Type 1 diabetes (N = 18))	CD4+ T-cell response, subjects with SI > 5 (%) (CD4+ T-cells (PBMCs); Type 1 diabetes (N = 18))	CD4+ T-cell response, subjects with SI > 10 (%) (CD4+ T-cells (PBMCs); Type 1 diabetes (N = 18))	CD8+ T-cell response, subjects with SI > 1 (%) (CD8+ T-cells (PBMCs); Controls (N = 11))	CD8+ T-cell response, subjects with SI > 3 (%) (CD8+ T-cells (PBMCs); Controls (N = 11))	CD8+ T-cell response, subjects with SI > 5 (%) (CD8+ T-cells (PBMCs); Controls (N = 11))	CD8+ T-cell response, subjects with SI > 10 (%) (CD8+ T-cells (PBMCs); Controls (N = 11))	CD8+ T-cell response, subjects with SI > 1 (%) (CD8+ T-cells (PBMCs); Type 1 diabetes (N = 18))	CD8+ T-cell response, subjects with SI > 3 (%) (CD8+ T-cells (PBMCs); Type 1 diabetes (N = 18))	CD8+ T-cell response, subjects with SI > 5 (%) (CD8+ T-cells (PBMCs); Type 1 diabetes (N = 18))	CD8+ T-cell response, subjects with SI > 10 (%) (CD8+ T-cells (PBMCs); Type 1 diabetes (N = 18))	further results
SL-DOPA-QLENY-Cysteate-N (SL[Dopa]QLENY[Cya]N) [in silico designed oxPTM-INSP-3 derivative]	17	0.154 ± 0.006	54	0.228 ± 0.016	(54.5%)	(18.2%)	(18.2%)	(0.0%)	(50.0%)	(16.7%)	(10.5%)	(5.6%)	(36.4%)	(27.3%)	(27.3%)	(18.2%)	(44.4%)	(27.8%)	(16.7%)	(5.6%)	–
ERGYYYTPKTR (Ac-ERGYYYTPKTR) [oxPTM-INSP-6 version with a C-terminal arginine]	48	0.423 ± 0.039	88	0.697 ± 0.058	(63.6%)	(27.3%)	(0.0%)	(0.0%)	(72.2%)	(38.9%)	(15.8%)	(16.7%)	(18.2%)	(9.10%)	(9.1%)	(9.1%)	(55.6%)	(16.7%)	(16.7%)	(16.7%)	–
ERGYYYTPKT (Ac-ERGYYYTPKT) [in silico designed oxPTM-INSP-6 derivative]	25	0.351 ± 0.044	100	0.556 ± 0.031	(36.4%)	(18.2%)	(9.1%)	(0.0%)	(50.0%)	(22.2%)	(0.0%)	(0.0%)	(27.3%)	(18.2%)	(18.2%)	(9.1%)	(22.2%)	(11.1%)	(11.1%)	(5.6%)	–
ERGYY-DOPA-TPKT (ERGYY[Dopa]TPKT) [in silico designed oxPTM-INSP-6 derivative]	30	0.357 ± 0.030	100	0.536 ± 0.021	(27.3%)	(0.0%)	(0.0%)	(0.0%)	(50.0%)	(5.6%)	(5.2%)	(5.6%)	(18.2%)	(9.10%)	(0.0%)	(0.0%)	(27.8%)	(0.0%)	(0.0%)	(0.0%)	type 1 diabetes binders (IgG autoantibody reactivity) (serum IgG autoantibodies; Study cohort 2, N = 18): 55.5%
